Data published in US5334595A, “Pyrazoloquinolones as anticancer agents” (priority 1992, dated 1994).

Columns and labels:
Design in all cases: species or system mice
[1] = In vivo antitumor assay, Mam16C/RP (sc); details: mouse, in vivo, drug iv
Description: (§1) Mice: Inbred: C3H/He and NCR-nu; and Hybrids: B6D2F1 (C57BL/6 females×DBA/2 males, CD2F1 (Balb/c females×DBS/2 males) and B6C3fl (C57BL/6×C3H) were bred at Wayne State University from strains obtained from the Frederick Cancer Research Facility, Frederick, Maryland or purchased from commercial suppliers.
(§2) Tumors: Murine Tumor: P388 and an adriamycin-resistant (ADR) subline P388/ADR leukemia and the following transplantable solid tumors of mice were used for in vivo testing: B16 melanoma (B16), pancreatic ductal adenocarcinoma No. 03 (Pane 03), colon adenocarcinoma No. 38 (colo 38), lung carcinoma No. 12 (LC 12), mammary ductal adenocarcinoma No. 16/C (Mam16C) and an adriamycin-resistant subline Mam16C/ADR. Human tumor: A single human tumor, mammary carcinoma MX-1 was used for in vivo testing. All tumors are in the Developmental Therapeutics Program frozen tumor respository, maintained by the Biological Testing Branch, Frederick Maryland. Each has a detailed description, code identification number, and list of references at the National Tumor Repository. Murine tumors were maintained in the mouse strain of origin and were transplanted in the appropriate F1 hydrid (or the strain of origin) for therapy trials. Human mammary carcinoma MX-1 (MX1) was maintained as a subcutaneous implant in either athymic Swiss (Cr: NIH(S)-nu) or athymic random bred (NCR-nu) mice and transplanted in NCR-nu for therapy trials.
(§3) Chemotherapy: For pancreatic ductal adenocarcinoma No. 3, colon adenocarcinoma No. 38 (colo 38), lung carcinoma No. 12 LC 12) and both adriamycin-sensitive (RP) and-resistant (ADR) mammary ductal adenocarcinoma No. 16 (Mam16) tumors, bilateral tumor implants were used to help ensure a more uniform tumor burden per mouse (thus reducing the requirement for greater numbers of mice per group). The animals necessary to begin an experiment were pooled, implanted bilaterally s.c. on day zero with 30-60 mg tumor fragments using a 12-gauge trocar, and again pooled before randomization to the various treatment and control groups. Chemotherapy was started within three days after tumor implantation while the number of cells per mouse was relatively small (1×10^7 -1×10^8 cells).
(§4) Quantitative end points used to assess antitumor activity included % Increased Life Span (% ILS), Tumor Cell Kill (Log10 kill), and Tumor Growth Inhibition (T/C). Long Term Survivors (45 or 60 day) were excluded from calculations of %ILS and Tumor Cell Kill.
(§5) Tumors were measured with a caliper once or twice weekly (as needed) until either tumors exceeded 1600 mg or cure was assured. Tumor weights were estimated from two-dimensional measurements: Tumor Weight (mg)=(a×b^2) / 2, where a and b are the tumor length and width (ram) respectively. Measurements were carried out simultaneously in both treatment and control groups. When the control group tumors reached approximately 750-1500 mg in size (median of group), the median tumor weight of each group was determined (including zeros). The T/C value in percent is an indication of antitumor effectiveness. The % T/C was calculated from the following formula for solid murine tumor models: [formula] where T and C are median tumor weights of the treatment and control groups, respectively. […] A T/C value <10% is indicative of a high degree of antitumor activity and is the level used by National Cancer Institute to justify further development if other requirements are met (termed DN-2 level activity). By convention the T/C value for the mammary carcinoma MX-1 models is calculated by the parameter of change in tumor weight .

[2] = system: adriamycin-sensitive (RP) mammary ductal adenocarcinoma No. 16; test: In vivo antitumor assay, Mam16C/RP (sc); details: drug iv
Description: as §1, §2, §3, §4, §5

[3] = In vivo antitumor assay, LC12(sc); details: mouse, in vivo, drug iv, qd 3,5, exp 1161, MTD not achieved, maximum dose tested
Description: as §1
as §2, with “Human mammary carcinoma MX-1 (MX1) was maintained as a subcutaneous implant in either athymic Swiss (Cr: NIH(S)-nu) or athymic random bred (NCR-nu) mice and transplanted in NCR-nu for therapy trials.” left out
Quantitative end points used to assess antitumor activity included % Increased Life Span (% ILS), Tumor Cell Kill (Log10 kill), and Tumor Growth Inhibition (T/C). […]
Tumors were measured with a caliper once or twice weekly (as needed) until either tumors exceeded 1600 mg or cure was assured. […] When the control group tumors reached approximately 750-1500 mg in size (median of group), the median tumor weight of each group was determined (including zeros). […] The % T/C was calculated from the following formula for solid murine tumor models: [formula] where T and C are median tumor weights of the treatment and control groups, respectively. […] By convention the T/C value for the mammary carcinoma MX-1 models is calculated by the parameter of change in tumor weight .

[4] = system: pancreatic ductal adenocarcinoma No. 03; test: In vivo antitumor assay, Panc03(sc); details: for Log Kill: Panc03(sc), drug iv
Description: as §1, §2, §3, §4
(§6) The log10 cell kill was calculated from the following formula: [formula] where T-C is the tumor difference in the median day of death between the treated (T) and the control (C) groups and Td is the tumor doubling time (in days), the latter estimated from the best fit straight line from a log-linear growth plot of the control-group tumors in exponential growth. The conversion of the T-C values to log10 cell kill is possible because the Td for tumors regrowing post-treatment approximated the Td values of the tumors in untreated control mice.
Tumors were measured with a caliper once or twice weekly (as needed) until either tumors exceeded 1600 mg or cure was assured. Tumor weights were estimated from two-dimensional measurements: Tumor Weight (mg)=(a×b^2) / 2, where a and b are the tumor length and width (ram) respectively. Measurements were carried out simultaneously in both treatment and control groups. When the control group tumors reached approximately 750-1500 mg in size (median of group), the median tumor weight of each group was determined (including zeros). The T/C value in percent is an indication of antitumor effectiveness. The % T/C was calculated from the following formula for solid murine tumor models: [formula] where T and C are median tumor weights of the treatment and control groups, respectively. A T/C equal to or less than 42% is considered significant antitumor activity. […]

[5] = system: adriamycin-resistant (ADR) subline P388/ADR leukemia; test: In vivo antitumor assay, P388/ADR(iv); details: drug iv
Description: as §1, §2
(§7) For P388 and P388/ADR leukemia studies the tumor cells were implanted either interperitoneally (IP) or intravenously (IV) on day zero and treatment was started on day one. For B16 melanoma (B16) studies, the tumor cells were implanted IP on day zero and treatment was started on day one. Titered controls were also included to facilitate the calculation of tumor cell kill. For mammary carcinoma MX-1 studies, tumors were implanted with 1) subcutaneously (sc) (14-mg fragment of sc donor tumor) in the axillary region or 2) under the subrenal capsule (SRC) (10×10×10 ocular micrometer unit fragment of sc donor tumor). Treatment started on the day after subrenal capsule tumor implant or when the subcutaneous tumor implant had reached 100-700 mg.
as §4
(§8) Endpoints were calculated as follows: [formula] where Dt is the median day of death for treated and Dc is the median day of death for control groups. A % ILS ≥20 or ≥25 for P388 and B16 intraperitoneal models, respectively, is indicative of a significant degree of antitumor activity. A % ILS ≥75 or ≥50 for P388 and B16 intraperitoneal models, , respectively, is indicative of a high degree of antitumor activity and is the level used by National Cancer Institute to justify further development if other requirements are met (termed DN-2 level activity). Minimum quantitative activity limits for additional P388 models (e.g. P388/ADR and P388, IV) have not been defined. However, the activity limits specified for the intraperitoneal models may be applied as in the majority of instances the intraperitoneal models are found to be signficantly less challenging.
as §6

[6] = In vivo antitumor assay, P388/ADR(iv); details: mouse, in vivo, iv, drug iv
Description: as §1, §2, §7, §4, §8, §6

[7] = Mam16C/RP (sc), bid 1-5, exp 924

| Compound | MTD [1, 7] | Log Kill [2, 7] | T/C % [2, 7] | MTD [3] | Log Kill ([4]; qd 3,6,9, exp 1146) | Log Kill ([4]; qd 3, exp 895A) | ILS % ([5]; qd 1-3, exp 1149B) | Log Kill ([5]; qd 1-3, exp 1149B) | ILS % ([5]; qd 1-5, exp 1073B) | Log Kill ([5]; qd 1-5, exp 1073B) | MTD ([6]; qd 1-3, exp 1149B) | MTD ([6]; qd 1-5, exp 1073B) | MTD ([1]; Mam16C/RP, bid 1-8, exp 924) | Log Kill ([2]; Mam16C/RP, bid 1-8, exp 924) | T/C % ([2]; Mam16C/RP, bid 1-8, exp 924) | Log Kill ([4]; qd 3-5, exp 895A) | MTD ([4]; mouse, in vivo, iv) |
| --- | --- | --- | --- | --- | --- | --- | --- | --- | --- | --- | --- | --- | --- | --- | --- | --- | --- |
| Cc1cc(-c2c(F)cc3c4nn(CCN(C)C)c(=O)c-4cn(C4CC4)c3c2F)cc(C)n1.O=C(O)/C=C/C(=O)O [Example 1, 5-Cyclopropyl-6,8-difluoro-2,5-dihydro-2-[2-(dimethylamino)-ethyl]-7-(2,6-dimethyl-4-pyridinyl)-3H-pyrazolo[4,3-c]quinolin-3-one (E)-2-butendioate (1:1)] | 20 mg/kg | 1.2 | 13% | > 35 mg/kg | 0.66 | 0.66 | 27% | 1.3 | 14.3% | 0.93 | 52 mg/kg | 48 mg/kg | – | – | – | – | – |
| Cc1cc(-c2c(F)cc3c4nn(CCCN(C)C)c(=O)c-4cn(C4CC4)c3c2F)cc(C)n1 [Example 14] | – | – | – | – | – | – | – | – | – | – | – | – | 101 mg/kg | 1.5 | 8% | 0.60 | 64 Mg/Kg |
